Values of other authors, collected in USRE48948E1, “Clonidine compounds in a biodegradable polymer” (priority 2008, dated 2022).
Structures can show the parent of a compound that is named as a salt.

Experiments:
post-surgical knee pain = details: Intra-articular administration of 150 mcg
[1] = in vivo

| SMILES | relief of post-surgical knee pain (post-surgical knee pain) | plasma concentration above which antihypertensive effects become evident [1] | systemic concentration associated with spinal analgesia [1] |
| --- | --- | --- | --- |
| Clc1cccc(Cl)c1N=C1NCCN1 [clonidine HCL] | as effective as morphine |  |  |
| Clc1cccc(Cl)c1N=C1NCCN1 [clonidine, 2,6-dichloro-N-2-imidazolidinyldenebenzenamine] |  | above 500 pg/mL | approximately 2 ng/mL |
